Measured values as given in US10722496B2, “2-iminobiotin for use in the treatment of brain cell injury” (Neurophyxia B.V., priority 2015, dated 2020).

Tests used:
4VO rat model = assay: Histology, living neurons in CA1 region of hippocampus after 4VO; format: in vivo; conditions: 33 days after insult
Description: The rats were anesthetized using ketamine (90 mg/kg) and xylazine sodium ([…]), as described earlier (Meilin et al., 2014). The first cervical vertebrata was exposed and the vertebral arteries were permanently occluded by electrocauterization. The common carotid arteries were isolated through a ventral midline neck incision and lifted using a 4.0 silk suture ligature, placed around them.
Twenty-four hours post vertebral arterial occlusion, the animals were reanesthetized using isoflurane. The common carotid arteries were exposed and occluded using microaneurysm clips for 15 minutes. After removing the clips reperfusion occurred. The skin of the incision at the neck was sutured using 4-0 silk suture. During the operation animal's core temperature was monitored using a rectal probe (Model 400; YSI Inc., Yellow Springs, Ohio, USA) connected to a thermometer (Model 8402-00; Cole-Parmer Instrument Co. Ltd, London, UK). The ischemic insult was initiated when a rectal temperature of 37-38° C. was achieved, and this temperature was maintained throughout the procedure using a heating mattress.
During the acclimatization period rats were randomly assigned to experimental groups. The animals were subjected to 4VO per cage or one rat per cage was subjected to HI. Rats received either vehicle (normal saline at pH 3.8-4.0) or 2-IB (1.1 mg/kg, 3.3 mg/kg, 10 mg/kg and 30 mg/kg dissolved in 5 ml/kg normal saline at pH 3.8-4.0). Each dosing group was kept in separate cages to avoid cross-contamination by consuming stools during the study period. The experimental groups were as follows.
Rats were sacrificed at 33 days after the insult with an overdose of pentobarbital sodium (100 mg/kg i.p.). Histological analysis was performed in at least 9 rats for each group. The brains of the other 3 rats per group were snap frozen in liquid nitrogen and were stored for future analysis. The brain was perfused via the left ventricle with heparinised normal saline to remove the excess of blood from the brain. Afterwards the brain was perfused with 4% paraformaldehyde phosphate-buffered saline. The whole brain was removed and immersed in formaldehyde for at least another 72 hours. Brains were embedded in paraffin. Coronal sections ([…]) were cut at approximately 3.3 mm from the bregma and stained with hematoxylin-eosin. Sections were scored in a blinded way for living neurons in the right and left part of the CA1 region of the hippocampus, the most damaged area in this model of global ischemia. This was also considered a secondary outcome parameter.

[1] = test system: cell stress associated proteins; assay: Cell stress proteome profiler array; format: cell-based, human; conditions: for ADAMTS1 mean densitometric intensity / Bcl-2 mean densitometric intensity / CA IX mean densitometric intensity / COX-2 mean densitometric intensity / Cited 2 mean densitometric intensity / Cytochrome C mean densitometric intensity / Dkk-4 mean densitometric intensity / FABP-1 mean densitometric intensity / HIF1a mean densitometric intensity / HIF2a mean densitometric intensity / HSP60 mean densitometric intensity / HSP70 mean densitometric intensity / IDO mean densitometric intensity / NFkB1 mean densitometric intensity / PON1 mean densitometric intensity / PON2 mean densitometric intensity / PON3 mean densitometric intensity / PP53 mean densitometric intensity / SIRT2 mean densitometric intensity / SOD2 mean densitometric intensity / Thioredoxin-1 mean densitometric intensity / p21/CIP1 mean densitometric intensity / p27 mean densitometric intensity / pHSP-27 mean densitometric intensity / pJNK mean densitometric intensity / pp38a mean densitometric intensity: 2-IB (30 ng/ml)
Description: In vitro hypoxia was induced in the cell cultures by using our recently described system with minor modifications (Huang et al., 2013b; Weber et al., 2015; Zitta et al., 2010). Enzyme stock solutions (100×) of catalase and glucose oxidase (both from Sigma-Aldrich) were prepared in cell culture medium (DMEM/F12, 1% FCS; final concentration: 120 U/ml and 2 U/ml respectively; Sigma-Aldrich) leading to a decrease of partial pressure of oxygen (pO2) below 10 mmHg within 5 minutes. Hypoxic conditions were confirmed by using a tissue oxygen pressure monitor (LICOX® CMP Oxygen Catheter; Integra, Plainsboro, USA). After 7 hours of hypoxia, the cells were washed twice with PBS (PAA) and fresh normoxic medium supplemented with solvent (citrate buffer 1%) or 2-IB (10, 30, 50, 100 and 300 ng/mL) was added to the cells. Investigations of cell damage, metabolic activity, ROS, hydrogen peroxide, nitrite/nitrate production, erkl/2, akt and stat5 phosphorylation as well as cell stress protein expression were performed with cell culture media or cell protein (FIG. 1).
Proteome profiling was performed using commercially available cell stress proteome profiler arrays (R&D Systems, Minneapolis, USA) and the manufacturer's protocol provided with the assay kit. Equal amounts (50 μg) of protein from each experiment (N=4) were pooled and applied to the respective array membrane. Expression levels of 26 cell stress associated proteins were evaluated by densitometric analyses of the arrays using the ImageJ 1.410 software (ImageJ, NIH, USA).

[2] = 30 ng/ml 2-IB after the hypoxic insult, of 26 proteins

`N=C1N[C@H]2[C@H](CS[C@H]2CCCCC(=O)O)N1` [2-IB, 2-iminobiotin] was tested, and the “surviving cells in the CA1 region” value (4VO rat model; 1.1 mg/kg/dose s.c.) was 29±34, the “surviving cells in the CA1 region” value (4VO rat model; 3.3 mg/kg/dose s.c.) was 71±61 and the “surviving cells in the CA1 region” value (4VO rat model; 10 mg/kg/dose s.c.) was 63±54. For the same compound, the “surviving cells in the CA1 region” value (4VO rat model; 30 mg/kg/dose s.c.) was 50±51, the “cell stress associated proteins down regulated after hypoxia” value [1, 2] was 3/26 and the “cell stress associated proteins unchanged after hypoxia” value [1, 2] was 4/26. The “cell stress associated proteins up regulated after hypoxia” value [1, 2] was 19/26, the “investigated stress proteins up regulated” value ([1]; 30 ng/ml 2-IB for 4 hours post hypoxia) was 73% and the “ADAMTS1 mean densitometric intensity” value ([1]; Hypoxia) was 9.23. The “Bcl-2 mean densitometric intensity” value ([1]; Hypoxia) was 42.62, the “CA IX mean densitometric intensity” value ([1]; Hypoxia) was 23.02 and the “COX-2 mean densitometric intensity” value ([1]; Hypoxia) was 13.79. The “Cited 2 mean densitometric intensity” value ([1]; Hypoxia) was 67.91, the “Cytochrome C mean densitometric intensity” value ([1]; Hypoxia) was 108.04 and the “Dkk-4 mean densitometric intensity” value ([1]; Hypoxia) was 3.47. The “FABP-1 mean densitometric intensity” value ([1]; Hypoxia) was 9.02, the “HIF1a mean densitometric intensity” value ([1]; Hypoxia) was 47.93 and the “HIF2a mean densitometric intensity” value ([1]; Hypoxia) was 0.00. The “HSP60 mean densitometric intensity” value ([1]; Hypoxia) was 150.57, the “HSP70 mean densitometric intensity” value ([1]; Hypoxia) was 170.82 and the “IDO mean densitometric intensity” value ([1]; Hypoxia) was 0.00. The “NFkB1 mean densitometric intensity” value ([1]; Hypoxia) was 8.63, the “PON1 mean densitometric intensity” value ([1]; Hypoxia) was 0.00 and the “PON2 mean densitometric intensity” value ([1]; Hypoxia) was 20.16. For the same compound, the “PON3 mean densitometric intensity” value ([1]; Hypoxia) was 0.00, the “PP53 mean densitometric intensity” value ([1]; Hypoxia) was 11.92 and the “SIRT2 mean densitometric intensity” value ([1]; Hypoxia) was 171.53. The “SOD2 mean densitometric intensity” value ([1]; Hypoxia) was 203.11, the “Thioredoxin-1 mean densitometric intensity” value ([1]; Hypoxia) was 147.57 and the “p21/CIP1 mean densitometric intensity” value ([1]; Hypoxia) was 51.41. For the same compound, the “p27 mean densitometric intensity” value ([1]; Hypoxia) was 4.67, the “pHSP-27 mean densitometric intensity” value ([1]; Hypoxia) was 1.65 and the “pJNK mean densitometric intensity” value ([1]; Hypoxia) was 48.63. The “pp38a mean densitometric intensity” value ([1]; Hypoxia) was 3.52, the “ADAMTS1 mean densitometric intensity” value ([1]; Normoxia) was 10.32 and the “Bcl-2 mean densitometric intensity” value ([1]; Normoxia) was 32.27. For the same compound, the “CA IX mean densitometric intensity” value ([1]; Normoxia) was 0.00, the “COX-2 mean densitometric intensity” value ([1]; Normoxia) was 8.91 and the “Cited 2 mean densitometric intensity” value ([1]; Normoxia) was 44.07. For the same compound, the “Cytochrome C mean densitometric intensity” value ([1]; Normoxia) was 84.87, the “Dkk-4 mean densitometric intensity” value ([1]; Normoxia) was 2.81 and the “FABP-1 mean densitometric intensity” value ([1]; Normoxia) was 6.67. The “HIF1a mean densitometric intensity” value ([1]; Normoxia) was 62.15, the “HIF2a mean densitometric intensity” value ([1]; Normoxia) was 0.00 and the “HSP60 mean densitometric intensity” value ([1]; Normoxia) was 121.73. The “HSP70 mean densitometric intensity” value ([1]; Normoxia) was 139.78, the “IDO mean densitometric intensity” value ([1]; Normoxia) was 0.00 and the “NFkB1 mean densitometric intensity” value ([1]; Normoxia) was 6.09. For the same compound, the “PON1 mean densitometric intensity” value ([1]; Normoxia) was 0.00, the “PON2 mean densitometric intensity” value ([1]; Normoxia) was 8.83 and the “PON3 mean densitometric intensity” value ([1]; Normoxia) was 0.00. The “PP53 mean densitometric intensity” value ([1]; Normoxia) was 8.64, the “SIRT2 mean densitometric intensity” value ([1]; Normoxia) was 148.80 and the “SOD2 mean densitometric intensity” value ([1]; Normoxia) was 181.53. For the same compound, the “Thioredoxin-1 mean densitometric intensity” value ([1]; Normoxia) was 126.34, the “p21/CIP1 mean densitometric intensity” value ([1]; Normoxia) was 43.13 and the “p27 mean densitometric intensity” value ([1]; Normoxia) was 4.51. For the same compound, the “pHSP-27 mean densitometric intensity” value ([1]; Normoxia) was 0.79, the “pJNK mean densitometric intensity” value ([1]; Normoxia) was 39.24 and the “pp38a mean densitometric intensity” value ([1]; Normoxia) was 4.72.
